According to article PMC6158191, “Crystal structure of the red light-activated channelrhodopsin Chrimson” (Nature Communications, 2018):

Legend:
[1] = biological target: T1, C1Chrimson (called Chrimson in the structure and spectroscopy sections) (Chlamydomonas noctigama, UniProt Z9S8G4QJ52); assay: X-ray crystallography, […] Å; format: binding; conditions: covalent; Schiff base to conserved lysine; crystals at low pH, dark
T1 construct: residues 1-79 of CsChrimson replaced by CrChR1 1-76; Sf9; C-terminal TEV-EGFP-FLAG cleaved for crystals; C-terminal FLAG for spectroscopy; dimer
T1 sequence (Z9S8G4QJ52 1-347): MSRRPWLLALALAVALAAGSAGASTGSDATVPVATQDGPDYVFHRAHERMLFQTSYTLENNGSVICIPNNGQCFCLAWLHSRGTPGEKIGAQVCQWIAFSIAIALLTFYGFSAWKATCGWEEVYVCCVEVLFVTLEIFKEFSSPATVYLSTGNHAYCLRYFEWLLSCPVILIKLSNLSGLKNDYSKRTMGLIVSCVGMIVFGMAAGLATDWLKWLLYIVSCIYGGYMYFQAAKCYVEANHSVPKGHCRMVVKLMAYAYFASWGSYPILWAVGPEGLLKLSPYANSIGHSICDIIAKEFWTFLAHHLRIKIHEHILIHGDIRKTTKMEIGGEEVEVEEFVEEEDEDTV

CsChrimson = biological target: T2, CsChrimson (Chlamydomonas noctigama, UniProt Z9S8G4QJ52, , form not given); assay: whole-cell patch clamp, HEK293, photocurrent on cation exchange; format: cell-based; conditions: permeant ion; 110 mM guanidinium chloride outside replacing NaCl; 110 mM NaCl inside, pHi 7.2
T2 construct: extracellular N-terminus of Chrimson replaced by that of C. subdivisa channelrhodopsin; in pmCerulean-C1 vector; HEK293 cells; with Channelrhodopsin (Chloromonas subdivisa; N-terminal extracellular part of the same polypeptide)
T2 sequence (Z9S8G4QJ52 77-347 R159H): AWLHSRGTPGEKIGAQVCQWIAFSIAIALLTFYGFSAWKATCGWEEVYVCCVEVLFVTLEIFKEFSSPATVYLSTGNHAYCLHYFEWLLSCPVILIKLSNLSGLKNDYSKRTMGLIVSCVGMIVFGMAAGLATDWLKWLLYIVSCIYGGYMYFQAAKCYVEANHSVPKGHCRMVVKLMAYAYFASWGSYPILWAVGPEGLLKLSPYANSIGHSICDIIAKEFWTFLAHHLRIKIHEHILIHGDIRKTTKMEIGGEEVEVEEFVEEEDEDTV

[2] = biological target: C1Chrimson (Chrimson variant with the extracellular N-terminal sequence replaced by that of CrChR1) (Chlamydomonas reinhardtii | Chlamydomonas noctigama); assay: crystal structure; lipidic cubic phase (monoolein) crystals, 28-33% PEG500DME, 100 mM Na citrate pH 5.0, 100 mM Na malonate pH 7.0, 10-40 mM sarcosine; two protomers in the asymmetric unit; 2.6 Å

`CC1=C(/C=C/C(C)=C/C=C/C(C)=C/C=O)C(C)(C)CCC1` [all-trans retinal] was tested, and the “X-ray crystallography, 2.6 Å” value [1] was “including the covalently attached all-trans retinal”.

With `N=C(N)N` [guanidinium] the “whole-cell patch clamp, HEK293, photocurrent on cation exchange” value (CsChrimson) was “ion-conducting pore of the R162H mutant is permeable to the large cation guanidinium”.

“C1Chrimson (Chrimson variant with the extracellular N-terminal sequence replaced by that of CrChR1)” showed a stoichiometry N [2] of 2.
